Reference: US12678412B2, “Substituted tolans for the modulation of microbial colonization” (BioMendics, LLC, priority 2017, dated 2026)

Assays:
[1] = system: S. typhimurium TA97a; test: Dose range finding colony forming assay, strain TA97a with metabolic activation; assay type: cell-based
Procedure: A series of dose range finding assays were performed with five bacterial strains, S. typhimurium TA97a, TA98, TA100, TA1535, and E. coli WP2 uvrA pKM101, with and without metabolic activation at three plates per dose. The following doses, along with positive and negative controls, were tested: 5000, 2500, 1250, 500, 250, 125, 50, 20, 10, 5, 2, 1, and 0.2 μg/plate. The plates were evaluated for toxicity (a decrease in plate counts with increasing dose and/or a visible thinning of the background lawn) and for precipitation of the test article. Metabolic activation was included in some samples by adding phenobarbital/benzoflavone-induced rat liver S9 fractions with cofactors (S9 mix). Prior to use, freshly thawed aliquots of rat liver S9 were mixed with a sterile cofactor mix. The S9 mix contains a 10% liver S9 concentration and was refrigerated or stored on ice until used. When testing with metabolic activation, the S9 mix was used in the assay tube in place of phosphate buffer.
Dosing formulations were prepared to deliver all doses in a constant volume of 0.1 mL. The highest dose was prepared from test article weighed to the nearest 0.1 mg and the remaining formulations were prepared as serial dilutions from the high dose stock formulation. Using a permanent marking pen or computer printed labels, assay plates were labeled with the project and study numbers and the date. Assay plates and tubes were labeled with a unique identifier, which was used to match the assay tubes with the properly identified minimal glucose agar plate.
The pre-incubation method was used to perform the assay. The assay mix consisted of 0.1 mL of the test article formulation or control article, 0.5 mL S9 mix or phosphate buffer, and 0.1 mL of bacterial culture. Assay tubes were incubated at 37±1° C. with gentle agitation for 20±1 minutes, then 2.0-2.5 mL top agar was added to the assay mix and the top agar/assay mix poured onto appropriately labeled minimal glucose agar plates. Once the top agar hardened, the plates were inverted and incubated at 37±1° C. for 48±2 hours. Plates were counted with the Sorcerer (v. 2.2)/Ames Study Manager (v. 1.2.4) system from Perceptive Instruments (Suffolk, UK). With this system, plate counts are automatically transferred from the plate imager (Sorcerer) to a Study Manager spreadsheet, and the data are stored in a secure manner on an Oracle database. Some plates were hand counted, e.g., if sample precipitate interferes with automatic counting or toxicity results in the formation of microcolonies, in which case, counts for these plates were entered into the spreadsheet manually. Plates were scored also with the extent of colonization by a post fix code.

[2] = system: MRSA USA 400; test: Bacterial cell death, DAPI/propidium iodide staining; assay type: cell-based, Staphylococcus aureus; settings: 24 h treatment; 0.002 mM to 0.0625 mM; FIG. 13
Procedure: In order to confirm that treatment with BM3103 induced MRSA USA 400 bacterial cell death, both untreated cells and cells treated with BM3103 were stained with a combination of DAPI (nuclear stain) and Propidium iodide (PI, Live dead stain). In a healthy cell, PI is not able to cross the cell membrane and produces no fluorescent signal. If the cell is dead or has a compromised cell membrane it will bind DNA and fluoresces between 535 nm excitation and 617 nm emission. MRSA USA 400 were plated in a well plate at 10^8 CFU/mL in combination with BM3103 treatment or no treatment. Plates were placed at 37° C. for 24 h. Bacteria cells were co-stained with DAPI and PI at 50 μg/mL and 500 μg/mL, respectively, for 15 min at room temperature. Wells were washed with warmed phosphate buffered saline (PBS) and maintained in PBS throughout the imaging acquisition process. Images were captured using the same exposure limits for each filter. […] Concentrations above 0.0625 mM gave a similar result.

[3] = system: Candida albicans ATCC 64550; test: Colony forming assay, spread plate, Candida albicans; assay type: cell-based; settings: Formulation C, compared to low dose, vehicle, Tobramycin and untreated control, 24 h, FIG. 8
Procedure: A fresh culture of pathogenic isolate was used in these examples. The bacterial strains used were Methicillin Resistant Staphylococcus aureus (MRSA USA 300), Pseudomonas aeruginosa ATCC 27312, and Candida albicans ATCC 64550.
FIG. 5 illustrates the spread plate method used in these examples. In sum, agar plates were made, bacteria were diluted to 10^6 or 10^8 CFU/mL, bacteria and drug were mixed together and then plated. Glass spreading beads were used because they give a better bacterial spread. Plates were incubated for 24 hrs then the colonies that formed were counted.
Proliferating cultures of Pseudomonas aeruginosa (PA, ATCC 27312) and Candida albicans (CA, ATCC 64550) were used in a colony forming assay. Freeze-dried bacteria cultures were recovered by swabbing a 3-cm diameter growth area and resuspending it to obtain a final inoculum suspension of approximately 10^6 CFU/mL. The concentration was confirmed using historical optical density measurements. […] Plates were photographed and counted. […]
Colony counts for each treatment were tabulated and the Log of the colony forming units/mL (Log CFU/mL) were determined. The mean and standard deviation of the Log CFU/mL were calculated for each treatment. […]

COc1ccc(C#Cc2ccc(O)cc2)cc1 [BM3103, 4-hydroxy-4′-methoxytolan]
Colony forming units/plate ([1]; 0.2 μg/plate): 89.0 colony forming units/plate
Individual colony counts ([1]; 0.2 μg/plate): 89
Colony forming units/plate ([1]; 1 μg/plate): 122.0 colony forming units/plate
Individual colony counts ([1]; 1 μg/plate): 122
Colony forming units/plate ([1]; 2 μg/plate): 78.0 colony forming units/plate
Individual colony counts ([1]; 2 μg/plate): 78
Colony forming units/plate ([1]; 5 μg/plate): 78.0 colony forming units/plate
Individual colony counts ([1]; 5 μg/plate): 78
Colony forming units/plate ([1]; 10 μg/plate): 77.0 colony forming units/plate
Individual colony counts ([1]; 10 μg/plate): 77.0
Colony forming units/plate ([1]; 20 μg/plate): 0.0 colony forming units/plate
Individual colony counts ([1]; 20 μg/plate): 0
Colony forming units/plate ([1]; 50 μg/plate): 0.0 colony forming units/plate
Individual colony counts ([1]; 50 μg/plate): 0
Colony forming units/plate ([1]; 125 μg/plate): 0.0 colony forming units/plate
Individual colony counts ([1]; 125 μg/plate): 0
Colony forming units/plate ([1]; 250 μg/plate): 0.0 colony forming units/plate
Individual colony counts ([1]; 250 μg/plate): 0
Colony forming units/plate ([1]; 500 μg/plate): 0.0 colony forming units/plate
Individual colony counts ([1]; 500 μg/plate): 0
Colony forming units/plate ([1]; 1250 μg/plate): 0.0 colony forming units/plate
Individual colony counts ([1]; 1250 μg/plate): 0
Plate postfix code (individual colony counts) ([1]; 1250 μg/plate): A P
Colony forming units/plate ([1]; 2500 μg/plate): 0.0 colony forming units/plate
Individual colony counts ([1]; 2500 μg/plate): 0
Colony forming units/plate ([1]; 5000 μg/plate): 0.0 colony forming units/plate
Individual colony counts ([1]; 5000 μg/plate): 0
PI staining (cell death) [2]: dose dependent increase in PI staining
Reduction of CA counts ([3]; high dose 0.5% w/v, 22 mM): about 4 fold
Reduction of CA counts ([3]; medium dose 0.25% w/v, 11 mM): about 4 fold
